A short description of data set [1]: in vivo. It counts as in vivo. To be noted: cat, in vivo, po; cats; similar diet with corresponding quantity of all four isomers. The text has this:
(§1) The compositions and methods of the invention may be successfully used to control rodents whilst minimising the hazard to non-target species as compared with the use of known compositions. […] This illustrates the improved safety of the invention compositions in the case of accidental ingestion of rodenticide bait by a non-target species.

The subject of data set [2] is cats. The data set is described as follows: in vivo. To be noted: diet simulating contaminated carcase. Type of data set: in vivo.
Excerpt: as §1

Data set [3] in a line: Selective depuration of isomer pairs from vole tissue, Example 4. Particulars: for Amount of isomer pair recovered from the tissue / concentration at 24 h / concentration at 48 h / concentration at 72 h / concentration at 96 h / concentration at 120 h: 10 ppm pellets, 0.54 mg/kg of A-D mixture consumed; for half-life / concentration at 24 h / concentration at 48 h / concentration at 72 h / concentration at 96 h / concentration at 120 h: po; for half-life: 0.54 mg/kg, calculated; for half-life / depuration: vole tissue; for depuration: in words; for concentration at 24 h / concentration at 48 h / concentration at 72 h / concentration at 96 h / concentration at 120 h: vole, tissue, read-out: Amount of isomer pair recovered from the tissue; for Ratio: isomers C and D to isomers A and B. Type of data set: in vivo, meadow voles (Microtus penusylvanicus). As to the method:
This Example illustrates the selective depuration of the active ingredient of the invention compositions by meadow voles (Microtus penusylvanicus).
Fasted wild voles were given pellets containing 10 ppm of mixture (approximately 1:1:1:1 by weight) of isomers A, B, C and D of brodifacoum until they had consumed 0.54 mg of active ingredient per kilogram of body weight. Voles were killed at 0, 1, 2, 3, 4, 5 and 14 days after dosing and the relative amounts of the A, B isomer pair and the C, D isomer pair remain in the vole tissue determined by chromatographic means.

The nature of data set [4]: Analysis of relative proportions of cis and trans isomers in carcasses of target and non-target species. It counts as in vivo, foxes, cats, hawks, owls and crows. To be noted: mixed isomers dosed. The source says:
We have now discovered that although there is little to choose between the isomers in terms of their rodenticidal effectiveness there is a significant difference in their persistence in the tissues of nonrodent non-target species which may be exposed to accidental ingestion of brodifacoum.
Species in which this selective depuration has been noted include scavanging and preditor mammals such as foxes and cats, and birds such as hawks, owls and crows. Thus if non-target species such as these consume the carcasses of rodents which have been killed by the use of the invention compositions they will be able to metabolise the residues of the active ingredient and not be at risk through bioaccumulation of a toxic dose by subsequently consuming further contaminated carcasses.

Data set [5] deals with pheasants (Phasianus colchicus). Type of data set: in vivo. To be noted: pheasants fed pelleted formulations; vs mixture of all four isomers (approximately 1:1:1:1).
Excerpt: as §1

Results on three compounds are retold here after patent US4783481A, “Rodenticides” (priority 1983, dated 1988).

The mortality is the share of the test organisms that died. The low end stands for a weak lethal effect, the high end for a strong lethal effect. The half-life is how long it takes for the measured level to halve.

The structures appear in SMILES notation. Bounds are passed on as bounds.

With `O=c1oc2ccccc2c(O)c1C1CC(c2ccc(-c3ccc(Br)cc3)cc2)Cc2ccccc21` (stereo not drawn) [all four brodifacoum isomers, reference compound], the mortality in data set [1] amounted to 100%. In addition, in data set [2], the prothrombin time entry is reported as “increased prothrombin times which did not return to normal”.
For `O=c1oc2ccccc2c(O)c1[C@H]1C[C@@H](c2ccc(-c3ccc(Br)cc3)cc2)Cc2ccccc21` (relative stereo) [Isomers A and B, reference compound], the “Amount of isomer pair recovered from the tissue” value in data set [3] (0 days after dosing) is given as 0.15 mg/kg. Besides, the half-life in data set [3] was over 336 h. Further, the depuration result in data set [3] is reported as “retained in the tissue”. For the same compound, the concentration at 24 h in data set [3] (1 day after dosing) amounted to 147 ng/g. Moreover, the concentration at 48 h in data set [3] (2 days after dosing) stood at 114 ng/g. For the same compound, the concentration at 72 h in data set [3] (3 days after dosing) came out at 114 ng/g. Also, the concentration at 96 h in data set [3] (4 days after dosing) amounted to 123 ng/g. Besides, the concentration at 120 h in data set [3] (5 days after dosing) turned out to be 101 ng/g. The “selective depuration / metabolism” value was “not metabolised at a sufficient rate to avoid the lethal consequences” in data set [4] and “relatively metabolically more stable” in data set [4] (listed as cis isomer).
Regarding `O=c1oc2ccccc2c(O)c1[C@@H]1C[C@@H](c2ccc(-c3ccc(Br)cc3)cc2)Cc2ccccc21` (relative stereo) [Isomers C and D], in data set [3] (0 days after dosing), the “Amount of isomer pair recovered from the tissue” value was found to be 0.122 mg/kg and the Ratio worked out at 0.818. Further, in data set [3] (1 day after dosing), the Ratio stood at 0.354 and the concentration at 24 h was found to be 52 ng/g. For the same compound, in data set [3] (2 days after dosing), the Ratio stood at 0.211 and the concentration at 48 h was 24 ng/g. Further, in data set [3] (3 days after dosing), the Ratio is reported as 0.123 and the concentration at 72 h came out at 14 ng/g. Further, in data set [3] (4 days after dosing), the Ratio is reported as 0.089 and the concentration at 96 h was found to be 11 ng/g. In data set [3] (5 days after dosing), the Ratio is listed as 0.05 and the concentration at 120 h came out at 5 ng/g. In data set [3], the half-life is about 24 h and the depuration entry is given as “rapid depuration”. The survival rate result in data set [5] is “much higher survival rate”. For the same compound, the prothrombin time result in data set [2] is reported as “temporary increase in prothrombin time which returned to normal after a short period”. Further, the mortality result in data set [2] (in words) was “no mortality”. For the same compound, the “selective depuration / metabolism” value in data set [4] (listed as isomers C and D of brodifacoum) was “rapid depuration”. Also, the “selective depuration / metabolism” value in data set [4] (listed as trans isomer) is reported as “selective metabolism of most or all of the trans isomer”.
